No end group written: not given here.
Molecular target: T1, S. cerevisiae adenylyl cyclase (Ras Dependent, strain FlD reconstituted with purified Ras) (Saccharomyces cerevisiae, UniProt P08678)
T1 construct: Since these membranes contain adenylyl cyclase, but are lacking Ras protein; endogenous in cells; host or cells: membranes of S. cerevisiae strain FlD
Assay: Yeast adenylyl cyclase assay, reconstitution of FlD membranes with purified Ras protein
Format: biochemical
Settings: part B, FlD membranes with 5 µM purified Ras protein, peptide 10 µM
Description: Another Ras-dependent enzymatic assay was used to extend the observed ability of the peptides of the present invention to inhibit Ras function. This system, yeast adenylyl cyclase assay, measures the Ras-dependent conversion of ATP into cyclic AMP (cAMP). […] Furthermore, in S. cerevisiae, regulation of cAMP metabolism appears to be a major function of Ras. This assay system was used to extend the observed Ras inhibitory activity of the peptides of the present invention, to a Ras function which is GAP-unrelated. S. cerevisiae strain FlD lacks functional Ras proteins, however FlD cells have functional adenylyl cyclase in their cell membrane. […] Similarly, a recombinant S. cerevisiae strain MY1186, lacks yeast Ras proteins but expresses mammalian Ras protein which functions with adenylyl cyclase to regulate cAMP metabolisim in the yeast cells. […] In contrast, S. cerevisiae strain JC377-10B contains a mutant form of adenylyl cyclase which constitutively converts ATP into cAMP with or without Ras.
Ras peptides were tested at the indicated concentrations for inhibition of S. cerevisiae adenylyl cyclase activity. […] Ras-independent activity was assayed with membranes from strain JC377-10B (ras-minus, constitutively active adenylyl cyclase).
Yeast strain FlD, MY1186 and JC377-10B, were grown in YEHD medium at 30°C. Membrane fractions were prepared from cultures grown to an A₆₆₀ of 0.5 to 1.0 by glusulase digestion [Casperson, G.F. et al., (1983), J. Biol. Chem., 258, pp. 7911-7914], Dounce homogenization of the spheroplasts in buffer containing 50 mM sodium MES [2(N-morpholino) ethanesulfonic acid] […] Adenylyl cyclase assays (100-µL reaction volume) measured the conversion of [α-³²P]ATP to [³²P]cAMP at 30°C, using 50 µg to 100 µg of membrane protein in assays using membranes from yeast strains MY1186 and JC377-10B.. […] Since these membranes contain adenylyl cyclase, but are lacking Ras protein, stimulation of adenylyl cyclase activity may be measured following reconstitution with purified Ras complexed with GTP. […]

T1 sequence (P08678 whole entry): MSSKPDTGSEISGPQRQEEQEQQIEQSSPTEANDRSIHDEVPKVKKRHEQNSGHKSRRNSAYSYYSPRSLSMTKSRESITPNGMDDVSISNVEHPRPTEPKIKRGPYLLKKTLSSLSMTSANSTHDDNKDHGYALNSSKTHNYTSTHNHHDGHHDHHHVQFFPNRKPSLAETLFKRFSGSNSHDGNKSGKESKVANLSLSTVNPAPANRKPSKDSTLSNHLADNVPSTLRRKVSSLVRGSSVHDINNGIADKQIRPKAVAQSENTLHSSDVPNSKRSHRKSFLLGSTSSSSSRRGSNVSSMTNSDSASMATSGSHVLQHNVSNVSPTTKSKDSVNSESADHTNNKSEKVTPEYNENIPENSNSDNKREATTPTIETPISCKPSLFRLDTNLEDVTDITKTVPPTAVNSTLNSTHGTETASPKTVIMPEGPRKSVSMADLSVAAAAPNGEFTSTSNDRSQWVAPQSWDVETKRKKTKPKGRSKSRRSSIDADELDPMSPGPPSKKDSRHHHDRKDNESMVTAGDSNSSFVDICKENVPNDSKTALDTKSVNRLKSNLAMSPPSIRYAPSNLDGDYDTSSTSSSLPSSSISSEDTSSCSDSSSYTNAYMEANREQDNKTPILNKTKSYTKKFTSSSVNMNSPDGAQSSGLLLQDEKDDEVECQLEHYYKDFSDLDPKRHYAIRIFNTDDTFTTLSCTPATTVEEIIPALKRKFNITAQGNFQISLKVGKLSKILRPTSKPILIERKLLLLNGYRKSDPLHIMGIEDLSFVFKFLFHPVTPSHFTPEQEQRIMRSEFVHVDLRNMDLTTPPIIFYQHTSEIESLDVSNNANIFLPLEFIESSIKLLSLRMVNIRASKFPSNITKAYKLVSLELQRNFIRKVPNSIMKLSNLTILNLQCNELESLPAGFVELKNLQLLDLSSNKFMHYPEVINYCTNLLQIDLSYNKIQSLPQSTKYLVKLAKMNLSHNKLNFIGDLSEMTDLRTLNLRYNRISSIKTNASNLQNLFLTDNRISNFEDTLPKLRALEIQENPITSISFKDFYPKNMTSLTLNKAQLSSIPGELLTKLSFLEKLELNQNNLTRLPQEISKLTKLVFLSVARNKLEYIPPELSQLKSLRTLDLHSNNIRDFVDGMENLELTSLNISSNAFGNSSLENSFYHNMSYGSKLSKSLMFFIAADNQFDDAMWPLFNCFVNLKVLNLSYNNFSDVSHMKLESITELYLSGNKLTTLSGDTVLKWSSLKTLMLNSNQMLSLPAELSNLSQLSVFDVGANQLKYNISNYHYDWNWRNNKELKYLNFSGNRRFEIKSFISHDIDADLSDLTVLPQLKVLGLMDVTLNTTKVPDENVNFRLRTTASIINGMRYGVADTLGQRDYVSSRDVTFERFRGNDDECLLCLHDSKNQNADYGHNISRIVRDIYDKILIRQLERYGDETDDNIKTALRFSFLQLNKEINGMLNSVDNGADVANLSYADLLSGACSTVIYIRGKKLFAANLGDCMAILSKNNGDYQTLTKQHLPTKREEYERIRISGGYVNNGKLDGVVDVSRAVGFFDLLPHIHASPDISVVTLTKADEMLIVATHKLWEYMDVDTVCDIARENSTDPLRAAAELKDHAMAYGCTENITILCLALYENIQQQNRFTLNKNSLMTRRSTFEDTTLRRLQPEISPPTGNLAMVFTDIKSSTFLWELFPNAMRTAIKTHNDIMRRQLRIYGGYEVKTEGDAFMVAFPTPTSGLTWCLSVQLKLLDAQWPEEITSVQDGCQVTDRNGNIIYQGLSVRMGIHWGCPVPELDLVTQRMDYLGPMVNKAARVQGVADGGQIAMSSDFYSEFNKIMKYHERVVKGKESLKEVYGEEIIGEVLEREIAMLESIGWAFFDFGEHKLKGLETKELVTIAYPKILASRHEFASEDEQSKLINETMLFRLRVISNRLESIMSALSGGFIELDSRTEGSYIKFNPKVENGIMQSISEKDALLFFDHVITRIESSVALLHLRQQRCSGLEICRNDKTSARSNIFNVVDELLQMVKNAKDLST

Compound | %Inhibition of Adenylyl Cyclase Activity Ras Dependent [%]
CC[C@H](C)[C@H](NC(=O)[C@H](CC(C)C)NC(=O)[C@H](CCC(N)=O)NC(=O)[C@@H](NC(=O)[C@@H](NC(=O)[C@H](CC(C)C)NC(=O)[C@H](C)NC(=O)[C@@H](N)CO)[C@@H](C)O)[C@@H](C)CC)C(=O)N[C@@H](CCC(N)=O)C(=O)N[C@@H](CC(N)=O)C(=O)N[C@@H](Cc1c[nH]cn1)C(=O)N[C@@H](Cc1ccccc1)C(=O)N[C@H](C(=O)N[C@@H](CC(=O)O)C(=O)N[C@@H](CCC(=O)O)C(=O)N[C@@H](Cc1ccc(O)cc1)C(=O)O)C(C)C [Ras 17-32] | 26 ± 2
LIQNHFVDEYDPTIE [Ras 23-37] | 5 ± 1

— patent EP0496162A2, “Peptide inhibitors of RAS-GAP interaction” (MERCK & CO. INC., priority 1990, dated 1992)
